Source: ChEMBL document CHEMBL1201862, “PubChem BioAssay data set” (2004)
“And” between values parts separate entries of the source, which are not always exact repeats. Equal entries are not always repeated.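 Step 1: Grow cells in 96-well plates. Step 2: Expose to compound for 48 hours at 5 concentrations. Step 3: Interpolate endpoints linearly; if unreached, use highest concentration. GI50 = concentration required for 50% inhibition of growth.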 The source made the active and inactive calls. Rule as the data show it: active = GI50 up to about 1.1 µM and inactive = higher.

Legend:
Experiment in all cases: NCI tumour cell line growth inhibition, 48 h
A549 = system: A549
EKVX = system: EKVX
HCT-116 = system: HCT-116
HCT-15 = system: HCT-15
MDA-MB-231 = system: MDA-MB-231
Malme-3M = system: Malme-3M
NCI-H226 = system: NCI-H226
NCI-H23 = system: NCI-H23
OVCAR-3 = system: OVCAR-3
OVCAR-8 = system: OVCAR-8
PC-3 = system: PC-3
RXF 393 = system: RXF 393
SF-268 = system: SF-268
SK-MEL-28 = system: SK-MEL-28
SK-MEL-2 = system: SK-MEL-2
SNB-75 = system: SNB-75
UO-31 = system: UO-31
HL-60 = system: HL-60
K562 = system: K562
NCI-H460 = system: NCI-H460

| Structure (SMILES) | GI50 (A549) | GI50 (EKVX) | GI50 (HCT-116) | GI50 (HCT-15) | GI50 (MDA-MB-231) | GI50 (Malme-3M) | GI50 (NCI-H226) | GI50 (NCI-H23) | GI50 (OVCAR-3) | GI50 (OVCAR-8) | GI50 (PC-3) | GI50 (RXF 393) | GI50 (SF-268) | GI50 (SK-MEL-28) | GI50 (SK-MEL-2) | GI50 (SNB-75) | GI50 (UO-31) | GI50 (HL-60) | GI50 (K562) | GI50 (NCI-H460) |
| --- | --- | --- | --- | --- | --- | --- | --- | --- | --- | --- | --- | --- | --- | --- | --- | --- | --- | --- | --- | --- |
| COc1ccc(-n2cnc3c(N)nc(N)nc32)cc1 | 93.3 µM (inactive) | 24.8 µM (inactive) | > 100 µM (inactive) | > 100 µM | 57.8 µM (inactive) | > 100 µM (inactive) | > 100 µM (inactive) | > 100 µM (inactive) | > 100 µM (inactive) | > 100 µM (inactive) | > 100 µM (inactive) | 43.2 µM (inactive) | > 100 µM (inactive) | > 100 µM (inactive) | 54.2 µM (inactive) | 45.7 µM (inactive) | 65 µM (inactive) | – | – | – |
| CCSc1nnc2c(-c3ccccc3)n[nH]c2n1 | > 100 µM (inactive) | 16 µM (inactive) | > 100 µM (inactive) | > 100 µM | > 100 µM (inactive) | – | > 100 µM (inactive) | > 100 µM (inactive) | > 100 µM (inactive) | 66.8 µM (inactive) | > 100 µM (inactive) | > 100 µM (inactive) | 49.1 µM (inactive) | > 100 µM (inactive) | > 100 µM (inactive) | 27.2 µM (inactive) | > 100 µM (inactive) | > 100 µM (inactive) | > 100 µM (inactive) | > 100 µM (inactive) |
| COc1cc(/C=C2/Oc3c(OC)cccc3C2=O)ccc1O | > 100 µM (inactive) | 46.9 µM (inactive) | 76.9 µM (inactive) | 24.3 µM | > 100 µM (inactive) | – | 76 µM (inactive) | > 100 µM (inactive) | 61.2 µM (inactive) | > 100 µM (inactive) | 43.9 µM (inactive) | 90.2 µM (inactive) | > 100 µM (inactive) | > 100 µM (inactive) | > 100 µM (inactive) | 41.8 µM (inactive) | 63 µM (inactive) | 36.6 µM (inactive) | > 100 µM (inactive) | 32.4 µM (inactive) |
| O=C(c1ccccc1)N1CCC(CC2(c3cc4ccccc4[nH]3)OCCO2)CC1 | 68.5 µM (inactive) | 66.2 µM (inactive) | 29.3 µM (inactive) | 32.4 µM | 64.1 µM (inactive) | – | 32.7 µM (inactive) | 42.3 µM (inactive) | > 100 µM (inactive) | 58.6 µM (inactive) | 40.5 µM (inactive) | 76 µM (inactive) | 51.8 µM (inactive) | 19.4 µM (inactive) | 30.7 µM (inactive) | 47.1 µM (inactive) | 30.6 µM (inactive) | – | 16.3 µM (inactive) | 35.9 µM (inactive) |
| O=C1C(=Cc2ccco2)C(=O)C2CCCCC12 (stereo not drawn) | > 100 µM (inactive) | > 100 µM (inactive) | > 100 µM (inactive) | > 100 µM | > 100 µM (inactive) | > 100 µM (inactive) | > 100 µM (inactive) | > 100 µM (inactive) | > 100 µM (inactive) | > 100 µM (inactive) | > 100 µM (inactive) | > 100 µM (inactive) | > 100 µM (inactive) | > 100 µM (inactive) | > 100 µM (inactive) | > 100 µM (inactive) | – | – | 17.6 µM (inactive) | > 100 µM (inactive) |
| O=C(CCc1cc(O)cc(O)c1)NCCCNC(=O)CCc1cc(O)cc(O)c1 | > 100 µM (inactive) | > 100 µM (inactive) | > 100 µM (inactive) | > 100 µM | > 100 µM (inactive) | > 100 µM (inactive) | > 100 µM (inactive) | > 100 µM (inactive) | > 100 µM (inactive) | > 100 µM (inactive) | > 100 µM (inactive) | > 100 µM (inactive) | > 100 µM (inactive) | > 100 µM (inactive) | > 100 µM (inactive) | – | > 100 µM (inactive) | – | > 100 µM (inactive) | – |
| O=Cc1ccc(Oc2c3ccccc3nc3ccccc23)cc1 | 18.8 µM (inactive) | 17.7 µM (inactive) | 2.14 µM (inactive) | 4.16 µM | 2.29 µM (inactive) | 11.8 µM (inactive) | 4.03 µM (inactive) | – | 10.9 µM (inactive) | 5.75 µM (inactive) | 6.34 µM (inactive) | 7.98 µM (inactive) | 4.5 µM (inactive) | 12.6 µM (inactive) | – | 15.5 µM (inactive) | – | < 0.01 µM (active) | – | 16 µM (inactive) |
| O=C(OCc1ccc([N+](=O)[O-])cc1)N1c2ccccc2[C@@]23O[C@]24CCC[C@H]3C#C/C=C\C#C[C@H]14 | 8.77 µM (inactive) | > 100 µM (inactive) | > 100 µM (inactive) | 89.1 µM | > 100 µM (inactive) | 19.6 µM (inactive) | > 100 µM (inactive) | > 100 µM (inactive) | > 100 µM (inactive) | > 100 µM (inactive) | > 100 µM (inactive) | > 100 µM (inactive) | 38.6 µM (inactive) | > 100 µM (inactive) | > 100 µM (inactive) | – | > 100 µM (inactive) | 25 µM (inactive) | 88.1 µM (inactive) | 1.17 µM (inactive) |
| CCCN(CCC)C(=O)c1c(Cl)c2cccnc2n2c(C)cnc12 | 48.8 µM (inactive) | > 100 µM (inactive) | 48.3 µM (inactive) | – | 31.8 µM (inactive) | > 100 µM (inactive) | > 100 µM (inactive) | 90.2 µM (inactive) | 47.9 µM (inactive) | > 100 µM (inactive) | 23.9 µM (inactive) | 35 µM (inactive) | 96.2 µM (inactive) | > 100 µM (inactive) | – | 62.7 µM (inactive) | 38.8 µM (inactive) | 23.1 µM (inactive) | 26.3 µM (inactive) | 76.9 µM (inactive) |
| O=[N+]([O-])c1ccc2c(c1)Sc1ccccc1N2 | 8.51 µM (inactive) | 11.4 µM (inactive) | 9.57 µM (inactive) | 27.6 µM | 46.1 µM (inactive) | > 100 µM (inactive) | > 100 µM (inactive) | 7.35 µM (inactive) | > 100 µM (inactive) | > 100 µM (inactive) | 31.9 µM (inactive) | 37.8 µM (inactive) | > 100 µM (inactive) | > 100 µM (inactive) | – | 26.6 µM (inactive) | > 100 µM (inactive) | 5.11 µM (inactive) | 5.41 µM (inactive) | 22.8 µM (inactive) |
| C[C@@H]1C[C@H]2OC(=O)[C@@]3(C)CCC[C@@](C)([C@@H]23)[C@@]1(O)CCc1ccoc1 | > 100 µM (inactive) | > 100 µM (inactive) | > 87.7 µM (inactive) | 79.3 µM | > 100 µM (inactive) | – | > 61.2 µM (inactive) | > 77.8 µM (inactive) | > 100 µM (inactive) | > 100 µM (inactive) | > 100 µM (inactive) | > 100 µM (inactive) | > 100 µM (inactive) | > 100 µM (inactive) | > 100 µM (inactive) | > 100 µM (inactive) | > 59.3 µM (inactive) | 29.6 µM (inactive) | 42.2 µM (inactive) | 56.9 µM (inactive) |
| COc1c2c(cc3nc4ccccc4nc13)CC[C@H](NC(C)=O)c1cc(=O)c(SC)ccc1-2 | 4.29 µM (inactive) | 1.01 µM (active) | 0.46 µM (active) | 2.84 µM | 2.96 µM (inactive) | 0.288 µM (active) | 1.08 µM (active) | 0.238 µM (active) | 0.785 µM (active) | 1.63 µM (inactive) | 0.614 µM (active) | 2.74 µM (inactive) | 1.15 µM (inactive) | 12.7 µM (inactive) | 3.05 µM (inactive) | – | 5.09 µM (inactive) | – | 0.29 µM (active) | 0.933 µM (active) |
| COc1cc(O)c2c(=O)c3ccccc3n(C)c2c1 | > 100 µM (inactive) | 0.555 µM (active) | 10.2 µM (inactive) | 43.5 µM | 71.3 µM (inactive) | > 100 µM (inactive) | > 100 µM (inactive) | > 100 µM (inactive) | > 100 µM (inactive) | 18.7 µM (inactive) | > 100 µM (inactive) | 14.9 µM (inactive) | 53.7 µM (inactive) | > 100 µM (inactive) | > 100 µM (inactive) | – | 6.85 µM (inactive) | > 100 µM (inactive) | > 100 µM (inactive) | 4.48 µM (inactive) |
| CCOC(=O)c1ccc(NCC#CCN2CCOCC2)cc1 | 83.9 µM (inactive) | 57.9 µM (inactive) | 53 µM (inactive) | 62.4 µM | > 100 µM (inactive) | > 100 µM (inactive) | 70.3 µM (inactive) | > 100 µM (inactive) | > 100 µM (inactive) | – | > 100 µM (inactive) | > 100 µM (inactive) | > 100 µM (inactive) | > 100 µM (inactive) | > 100 µM (inactive) | – | > 100 µM (inactive) | 48.1 µM (inactive) | 38.6 µM (inactive) | – |
| COC(=O)C1=COC(C)C2CN3CCc4c([nH]c5cc(OC)c(OC)cc45)C3CC12 (stereo not drawn) | 96.8 µM (inactive) and 49.5 µM (inactive) | 54.6 µM (inactive) and 72.8 µM (inactive) | – | 43.8 µM and 25.1 µM | > 100 µM (inactive) | > 100 µM (inactive) | > 100 µM (inactive) and 61.5 µM (inactive) | 70.5 µM (inactive) and 37.6 µM (inactive) | 58.3 µM (inactive) | – | 64.9 µM (inactive) and 37 µM (inactive) | 15.3 µM (inactive) | > 100 µM (inactive) and 65 µM (inactive) | – | > 100 µM (inactive) | – | 51.1 µM (inactive) and 54.2 µM (inactive) | 26.6 µM (inactive) and 29.9 µM (inactive) | 38.4 µM (inactive) and 37.8 µM (inactive) | – |
